pIC50: −log10 of the molar value.

The assay can be described thus: Binding affinity against sigma receptor in bovine cerebellum using 2.0 nM [3H]haloperidol in the presence of 25 nM unlabeled spiperone.

Turning to `O=C(CCN1CC=C(c2ccc(Cl)cc2)CC1)c1ccccc1Cl` [1-(2-Chloro-phenyl)-3-[4-(4-chloro-phenyl)-3,6-dihydro-2H-pyridin-1-yl]-propan-1-one], the negative-log IC50 (pIC50) is 6.98.

The values above are taken from BindingDB's records for doi:10.1021/jm00076a021 (New York University, 1994).
